Measurements published in patent US5773459A, “Urea- and thiourea-type compounds” (Sugen, Inc., priority 1995, dated 1998).
Where two headings read alike, the source gives them in different places.

Assays:
Insulin Receptor = molecular target: T1, Insulin Receptor (Homo sapiens, UniProt P06213); experiment: Cellular Insulin Receptor ELISA; assay type: cell-based
T1 construct: host or cells: H25 (NIH3T3)
Procedure: Cellular Insulin Receptor ELISA (Version I)
The following protocol describes the cell line, reagents and procedures used to measure phosphotyrosine level on Insulin Receptor, which indicates Insulin Receptor tyrosine kinase activity.
(2). H25 cells are grown in an incubator with 5% CO2 at 37° C. The growth media is DMEM+10% FBS (heat inactivated)+2 mM L-Glutamine.
(3). For ELISA plate coating, the monoclonal anti-IR antibody named BBE is used. Antibodies are purified by the Enzymology Lab, SUGEN, Inc.
(2). […] Incubate for 1 day then replace medium to 0.01% serum medium (90/ul) and incubate in 5% CO2 and 37° C. overnight.
2. ELISA Plate Coating and Blocking
(2). Remove the coating solution, and replace with 100 ul Blocking Buffer, and shake for 30 minutes. Remove the blocking buffer and wash the plate just before adding lysate.
(1). The drugs are tested in serum-free condition.
(2). Dilute drug stock (in 100% DMSO) 1:10 with DMEM in 96-well poly-propylene plate, and transfer 10 ul/well of this solution to the cells to achieve final drug dilution 1:100, and final DMSO concentration of 1.0%. Incubate the cells in 5% CO2 at 37° C. for 2 hours.
(3). Prepare fresh cell lysis buffer (HNTG*) HNTG 2 ml EDTA 0.1 ml Na3VO4 0.1 ml Na4P2O7 0.1 ml H20 7.3 ml HNTG* 10 ml.
(4). After drug incubation for two hours, transfer 10 ul/well of 1 μM Insulin in PBS to the cells (Final Conc=100 nM), and incubate at 5% CO2 at 37° C. for 10 minutes.
(5). Remove media and add 100ul/well HNTG* and shake for 10 minutes. Look at cells under microscope to see if they are adequately lysed.
(6). Use a 12-channel pipette to scrape the cells from the plate, and homogenize the lysate by repeat aspiration and dispense. Transfer all the lysate to the antibody coated ELISA plate [V.2.(2)], and shake for 1 hour.
(7). Remove the lysate, wash the plate, transfer anti-pTyr (1:3,000 with TBST) 100 ul/well, and shake for 30 minutes.
(8). Remove anti-pTyr, wash the plate, transfer detection antibody (1:3,000 with TBST) 100 ul/well, and shake for 30 minutes.
(9). […]

[1] = system: MCF7 cells overexpressing the HER2 kinase (MCF7-HER2); experiment: MCF-7/HER-2 SRB Growth Assay; assay type: cell-based; details: Homo sapiens, read-out: GROWTH DATA: MCF7-HER2 0.5% FBS
From the text: The following examples illustrate the ability of the exemplary compounds to inhibit receptor tyrosine kinases, such as HER2 and/or EGFR. The following target cells were used for cellular kinase assays: NIH3T3 clone C7 (Honegger et al., supra) engineered to over-express human EGF receptor; NIH3T3 cells engineered to over-express a chimeric receptor containing the EGFR extracellular domain and the HER2 intracellular kinase domain; the human mammary carcinoma line BT474 (ATCC HTB2) expressing HER2; and the human glioblastoma line U1242 that expresses PDGFR-beta. Growth assays were carried out using human mammary epithelial SKBR3 (ATCC HTB30) cells (SKBR3 cells over-express HER2), SKOV3 (ATCC HTB77) human ovarian cancer cell line (SKOV3 cells also over-express HER2), A431 cells (A431 cells over-express EGFR) MCF7 human breast carcinoma cells, MCF7 cells overexpressing the HER2 kinase (MCF7-HER2), NIH3T3 cells, and NIH3T3 cells overexpressing the HER2 kinase (3T3-HER2.
MCF-7/HER-2 SRB Growth Assay
The protocol is basically the same as that above (for the MCF-7 Growth Assay) except that immediately before the 30 compound is added, the normal growth media is removed and 0.5% FBS/RPMI supplemented with 2 mM Glutamine is added onto the cells. The compound is also prepared in this 0.5% serum media. The plate of cells is incubated for four days and developed as usual.

[2] = H25 cells (NIH3T3 overexpressing Insulin Receptor), insulin stimulated, read-out: ELISA DATA: IR

T1 sequence (P06213 28-1382, species assumed): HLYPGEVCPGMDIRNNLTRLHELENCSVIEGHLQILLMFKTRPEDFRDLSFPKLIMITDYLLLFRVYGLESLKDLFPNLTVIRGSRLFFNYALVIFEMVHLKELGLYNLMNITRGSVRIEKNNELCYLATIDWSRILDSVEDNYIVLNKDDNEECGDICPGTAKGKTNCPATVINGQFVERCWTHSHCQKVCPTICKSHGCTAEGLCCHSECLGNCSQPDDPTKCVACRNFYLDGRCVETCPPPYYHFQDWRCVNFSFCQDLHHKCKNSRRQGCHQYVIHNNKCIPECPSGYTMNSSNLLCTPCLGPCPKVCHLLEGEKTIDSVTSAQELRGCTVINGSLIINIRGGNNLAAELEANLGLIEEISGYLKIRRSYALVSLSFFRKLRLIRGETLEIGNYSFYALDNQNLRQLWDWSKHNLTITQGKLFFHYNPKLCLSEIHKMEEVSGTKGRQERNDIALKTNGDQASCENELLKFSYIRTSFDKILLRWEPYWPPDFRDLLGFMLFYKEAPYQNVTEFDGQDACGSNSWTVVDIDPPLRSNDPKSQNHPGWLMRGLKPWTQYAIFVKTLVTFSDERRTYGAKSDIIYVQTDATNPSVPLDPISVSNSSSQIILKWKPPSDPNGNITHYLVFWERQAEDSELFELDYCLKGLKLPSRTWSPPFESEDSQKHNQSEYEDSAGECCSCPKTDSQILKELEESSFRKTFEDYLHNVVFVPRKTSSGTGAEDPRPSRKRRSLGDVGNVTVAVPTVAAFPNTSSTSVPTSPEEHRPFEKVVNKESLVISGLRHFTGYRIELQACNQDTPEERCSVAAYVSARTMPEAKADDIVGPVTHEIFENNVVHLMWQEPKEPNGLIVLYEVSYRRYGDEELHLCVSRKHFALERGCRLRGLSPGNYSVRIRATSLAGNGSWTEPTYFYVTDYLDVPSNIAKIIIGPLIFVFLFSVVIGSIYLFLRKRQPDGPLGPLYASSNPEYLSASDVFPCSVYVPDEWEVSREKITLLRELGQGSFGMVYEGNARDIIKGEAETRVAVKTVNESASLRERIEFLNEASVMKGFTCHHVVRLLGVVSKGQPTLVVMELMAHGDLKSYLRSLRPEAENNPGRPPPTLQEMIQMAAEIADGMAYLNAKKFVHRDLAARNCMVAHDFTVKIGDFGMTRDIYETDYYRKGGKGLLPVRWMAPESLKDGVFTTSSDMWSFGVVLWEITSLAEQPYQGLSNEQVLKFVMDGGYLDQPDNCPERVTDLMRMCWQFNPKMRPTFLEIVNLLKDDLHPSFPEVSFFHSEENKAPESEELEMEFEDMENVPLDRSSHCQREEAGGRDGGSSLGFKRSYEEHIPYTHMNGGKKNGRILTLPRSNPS

| IC50 (Insulin Receptor; [2]) [µM] | IC50 [1] [µM] | Structure (SMILES) | IC50 (Insulin Receptor) [µM] |
| --- | --- | --- | --- |
| > 100 | 0.9 | CC(C)S(=O)(=O)c1csc(NC(=O)Nc2ccc(C(C)(C)C)cc2)c1Cl [Example Z1, N-[3-Chloro-4-(isopropylsulfonyl)thien-2-yl]-N'-(4-t-butylphenyl)urea] |  |
| > 100 | 0.3 | CC(C)S(=O)(=O)c1csc(NC(=O)Nc2cc(C(F)(F)F)cc(C(F)(F)F)c2)c1Cl [Example Z2, N-[3-Chloro-4-(isopropylsulfonyl)thien-2-yl]-N'-(3,5-di-trifluoromethylphenyl)urea] |  |
|  | 1 | N#Cc1ccc(NC(=S)Nc2ccc(S(=O)(=O)N3CCCCC3)cc2)cc1 [Example Z4, N-(4-Cyanophenyl)-N'-[4-[(piperid-1-yl)sulfonyl]phenyl]thiourea] |  |

| Structure (SMILES) | IC50 (Insulin Receptor; [2]) [µM] | IC50 [1] [µM] | IC50 (Insulin Receptor) [µM] |
| --- | --- | --- | --- |
| O=C(Nc1ccc(SC(F)(F)F)cc1)Nc1ccc(Oc2ccc(Cl)cc2Cl)nc1 [Example Z3] |  | 0.2 | > 100 |
